Source: ChEMBL document CHEMBL1122929, “6,7-Dihydro-5-[[(cis-2-hydroxy-trans-3-phenoxycyclopentyl)amino] methyl]-2-methylbenzo[b]thiophen-4(5H)-one: a novel alpha 1-adrenergic receptor antagonist and renal vasodilator” (J Med Chem, 1985)
Active and inactive are the calls of the source. No cut-off for these calls is given here.

Columns and labels:
[1] = target: T1, Adrenergic receptor alpha-2 (Rattus norvegicus, UniProt P22086+P19328+P22909); test: Ability to inhibit 50% specific binding of [3H]-p-amino clonidine radioligand to alpha-2 adrenergic receptor in rat cerebrocortex; format: tissue-based, Cortex
T1 sequence (P22086 whole entry): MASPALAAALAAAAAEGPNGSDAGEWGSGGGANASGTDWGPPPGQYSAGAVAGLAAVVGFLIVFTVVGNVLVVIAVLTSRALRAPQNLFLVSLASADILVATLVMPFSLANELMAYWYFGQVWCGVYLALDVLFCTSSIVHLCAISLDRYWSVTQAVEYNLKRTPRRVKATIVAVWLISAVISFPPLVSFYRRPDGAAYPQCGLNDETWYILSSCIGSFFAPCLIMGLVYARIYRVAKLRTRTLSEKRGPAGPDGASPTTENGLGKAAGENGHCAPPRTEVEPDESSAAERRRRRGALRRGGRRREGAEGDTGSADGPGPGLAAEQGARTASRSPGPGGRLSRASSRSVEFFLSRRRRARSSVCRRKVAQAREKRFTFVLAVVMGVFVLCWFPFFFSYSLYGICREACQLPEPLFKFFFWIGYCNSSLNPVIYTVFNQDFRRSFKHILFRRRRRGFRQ
T1 sequence (P19328 whole entry): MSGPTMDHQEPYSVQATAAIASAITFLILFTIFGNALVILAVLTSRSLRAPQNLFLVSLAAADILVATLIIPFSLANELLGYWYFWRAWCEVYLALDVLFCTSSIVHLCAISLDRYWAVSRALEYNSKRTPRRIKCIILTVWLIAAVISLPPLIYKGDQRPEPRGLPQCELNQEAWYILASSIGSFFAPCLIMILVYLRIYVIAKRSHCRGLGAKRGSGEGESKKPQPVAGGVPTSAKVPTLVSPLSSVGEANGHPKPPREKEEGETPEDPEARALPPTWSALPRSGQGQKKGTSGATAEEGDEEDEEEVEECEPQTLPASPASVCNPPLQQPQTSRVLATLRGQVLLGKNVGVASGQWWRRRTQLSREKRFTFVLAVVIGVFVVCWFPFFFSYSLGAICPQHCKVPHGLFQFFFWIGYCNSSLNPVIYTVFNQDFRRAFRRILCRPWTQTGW
T1 sequence (P22909 whole entry): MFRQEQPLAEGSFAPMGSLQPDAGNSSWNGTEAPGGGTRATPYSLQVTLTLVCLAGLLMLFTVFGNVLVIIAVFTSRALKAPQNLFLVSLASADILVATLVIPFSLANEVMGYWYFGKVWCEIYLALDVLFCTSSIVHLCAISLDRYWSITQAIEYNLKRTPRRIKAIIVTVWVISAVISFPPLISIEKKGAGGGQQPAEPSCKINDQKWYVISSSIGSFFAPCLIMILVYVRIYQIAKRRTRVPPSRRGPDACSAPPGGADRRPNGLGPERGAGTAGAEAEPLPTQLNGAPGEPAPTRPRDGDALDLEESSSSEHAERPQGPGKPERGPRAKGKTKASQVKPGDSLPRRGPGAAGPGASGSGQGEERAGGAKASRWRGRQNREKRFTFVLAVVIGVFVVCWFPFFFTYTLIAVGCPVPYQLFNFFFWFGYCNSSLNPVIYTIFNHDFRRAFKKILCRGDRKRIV

[2] = organism: Canis familiaris; test: Dose required to reduce blood pressure by 15% (ED15) was calculated.; format: functional; conditions: Canis lupus familiaris
[3] = tested on: Canis familiaris; test: Mean arterial blood pressure was determined at cumulative dose of 0.01 mg/kg in anesthetized dogs by intravenous administration after SCH 23390 pretreatment; format: functional, Canis lupus familiaris
[4] = tested on: Canis familiaris; test: Mean arterial blood pressure was determined at cumulative dose of 0.01 mg/kg in anesthetized dogs by intravenous administration after sulpiride pretreatment; format: functional, Canis lupus familiaris
[5] = tested on: Canis familiaris; test: Mean arterial blood pressure was determined at cumulative dose of 0.03 mg/kg in anesthetized dogs by intravenous administration after SCH 23390 pretreatment; format: functional, Canis lupus familiaris
[6] = tested on: Canis familiaris; test: Renal blood flow was determined at cumulative dose of 0.1 mg/kg in anesthetized dogs by intravenous administration after sulpiride pretreatment; format: functional, Canis lupus familiaris, Kidney
[7] = tested on: Canis familiaris; test: Renal blood flow was determined at cumulative dose of 0.3 mg/kg in anesthetized dogs by intravenous administration after SCH 23390 pretreatment; format: functional, Canis lupus familiaris, Kidney
[8] = tested on: Canis familiaris; test: Renal blood flow was determined at cumulative dose of 0.3 mg/kg in anesthetized dogs by intravenous administration after sulpiride pretreatment; format: functional, Canis lupus familiaris, Kidney
[9] = tested on: Canis familiaris; test: Renal blood flow was determined at cumulative dose of 1 mg/kg in anesthetized dogs by intravenous administration after SCH 23390 pretreatment; format: functional, Canis lupus familiaris, Kidney
[10] = tested on: Canis familiaris; test: Renal blood flow was determined at cumulative dose of 1 mg/kg in anesthetized dogs by intravenous administration after sulpiride pretreatment; format: functional, Canis lupus familiaris, Kidney
[11] = tested on: Canis familiaris; test: Mean arterial blood pressure was determined at cumulative dose of 0.03 mg/kg in anesthetized dogs by intravenous administration after sulpiride pretreatment; format: functional, Canis lupus familiaris
[12] = tested on: Canis familiaris; test: Mean arterial blood pressure was determined at cumulative dose of 0.1 mg/kg in anesthetized dogs by intravenous administration after SCH 23390 pretreatment; format: functional, Canis lupus familiaris
[13] = tested on: Canis familiaris; test: Mean arterial blood pressure was determined at cumulative dose of 0.1 mg/kg in anesthetized dogs by intravenous administration after sulpiride pretreatment; format: functional, Canis lupus familiaris
[14] = tested on: Canis familiaris; test: Mean arterial blood pressure was determined at cumulative dose of 0.3 mg/kg in anesthetized dogs by intravenous administration after SCH 23390 pretreatment; format: functional, Canis lupus familiaris
[15] = tested on: Canis familiaris; test: Mean arterial blood pressure was determined at cumulative dose of 0.3 mg/kg in anesthetized dogs by intravenous administration after sulpiride pretreatment; format: functional, Canis lupus familiaris
[16] = tested on: Canis familiaris; test: Mean arterial blood pressure was determined at cumulative dose of 1 mg/kg in anesthetized dogs by intravenous administration after SCH 23390 pretreatment; format: functional, Canis lupus familiaris
[17] = tested on: Canis familiaris; test: Mean arterial blood pressure was determined at cumulative dose of 1 mg/kg in anesthetized dogs by intravenous administration after sulpiride pretreatment; format: functional, Canis lupus familiaris
[18] = tested on: Canis familiaris; test: Renal blood flow was determined at cumulative dose of 0.01 mg/kg in anesthetized dogs by intravenous administration after SCH 23390 pretreatment; format: functional, Canis lupus familiaris, Kidney
[19] = tested on: Canis familiaris; test: Renal blood flow was determined at cumulative dose of 0.01 mg/kg in anesthetized dogs by intravenous administration after sulpiride pretreatment; format: functional, Canis lupus familiaris, Kidney
[20] = tested on: Canis familiaris; test: Renal blood flow was determined at cumulative dose of 0.03 mg/kg in anesthetized dogs by intravenous administration after SCH 23390 pretreatment; format: functional, Canis lupus familiaris, Kidney
[21] = tested on: Canis familiaris; test: Renal blood flow was determined at cumulative dose of 0.03 mg/kg in anesthetized dogs by intravenous administration after sulpiride pretreatment; format: functional, Canis lupus familiaris, Kidney
[22] = tested on: Canis familiaris; test: Renal blood flow was determined at cumulative dose of 0.1 mg/kg in anesthetized dogs by intravenous administration after SCH 23390 pretreatment; format: functional, Canis lupus familiaris, Kidney
[23] = tested on: Canis familiaris; test: Mean arterial blood pressure (MABP) was evaluated in anesthetized dog after intravenous administration of 1 mg/kg of compound; format: functional, Canis lupus familiaris
[24] = tested on: Rattus norvegicus; test: Mean arterial blood pressure (MABP) was evaluated in chronically cannulated spontaneously hypertensive rats (SHR) after peroral administration 30 mg/kg of compound; […]; format: functional
[25] = target: T2, Adrenergic receptor alpha-1 (Rattus norvegicus, UniProt P15823+P23944+P43140); test: Ability to inhibit 50% specific binding of [3H]prazosin radioligand to alpha-1 adrenergic receptor in rat cerebrocortex; format: tissue-based, Cortex
T2 sequence (P15823 whole entry): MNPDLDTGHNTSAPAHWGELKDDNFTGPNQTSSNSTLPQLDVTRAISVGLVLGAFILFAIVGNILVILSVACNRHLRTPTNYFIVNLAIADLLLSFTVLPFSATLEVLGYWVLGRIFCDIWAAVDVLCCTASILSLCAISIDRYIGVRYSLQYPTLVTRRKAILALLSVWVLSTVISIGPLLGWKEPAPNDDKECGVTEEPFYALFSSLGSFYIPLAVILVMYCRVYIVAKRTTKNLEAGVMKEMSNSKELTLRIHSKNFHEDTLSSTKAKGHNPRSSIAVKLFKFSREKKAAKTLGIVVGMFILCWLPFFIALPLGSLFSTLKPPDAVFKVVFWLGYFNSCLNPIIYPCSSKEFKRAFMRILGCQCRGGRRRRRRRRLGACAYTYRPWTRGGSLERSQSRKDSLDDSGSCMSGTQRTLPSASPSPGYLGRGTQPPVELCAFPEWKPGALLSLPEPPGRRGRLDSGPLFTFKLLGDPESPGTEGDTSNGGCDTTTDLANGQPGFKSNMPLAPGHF
T2 sequence (P23944 whole entry): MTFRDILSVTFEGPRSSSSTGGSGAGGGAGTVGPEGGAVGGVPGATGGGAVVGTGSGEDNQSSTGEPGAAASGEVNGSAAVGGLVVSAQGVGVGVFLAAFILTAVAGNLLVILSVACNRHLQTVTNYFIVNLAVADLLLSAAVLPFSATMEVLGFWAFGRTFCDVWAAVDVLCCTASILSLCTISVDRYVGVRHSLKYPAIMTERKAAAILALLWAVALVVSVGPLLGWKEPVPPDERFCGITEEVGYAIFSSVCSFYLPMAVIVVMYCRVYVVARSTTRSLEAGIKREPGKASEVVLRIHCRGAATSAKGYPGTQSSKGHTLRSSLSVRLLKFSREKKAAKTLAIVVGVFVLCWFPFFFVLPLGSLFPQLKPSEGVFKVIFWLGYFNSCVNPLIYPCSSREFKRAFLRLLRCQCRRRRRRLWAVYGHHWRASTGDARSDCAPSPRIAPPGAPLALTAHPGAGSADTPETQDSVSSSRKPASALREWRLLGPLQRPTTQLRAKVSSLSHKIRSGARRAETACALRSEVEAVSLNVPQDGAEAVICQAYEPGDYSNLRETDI
T2 sequence (P43140 whole entry): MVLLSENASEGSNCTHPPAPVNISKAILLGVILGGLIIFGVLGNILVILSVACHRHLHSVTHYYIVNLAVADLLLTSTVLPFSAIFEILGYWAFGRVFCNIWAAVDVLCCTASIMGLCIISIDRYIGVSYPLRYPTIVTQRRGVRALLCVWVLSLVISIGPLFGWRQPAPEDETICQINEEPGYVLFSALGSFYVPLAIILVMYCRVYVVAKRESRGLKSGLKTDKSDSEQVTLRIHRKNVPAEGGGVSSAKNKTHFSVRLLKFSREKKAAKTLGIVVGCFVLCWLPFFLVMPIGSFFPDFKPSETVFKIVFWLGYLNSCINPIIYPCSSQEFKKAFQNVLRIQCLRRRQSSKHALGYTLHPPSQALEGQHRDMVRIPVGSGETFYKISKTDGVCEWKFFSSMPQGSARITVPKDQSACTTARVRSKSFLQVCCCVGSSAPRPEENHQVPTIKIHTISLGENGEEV

[26] = target: Adrenergic receptor alpha-1 (Oryctolagus cuniculus); test: pA2 value for phenylephrine antagonist towards at alpha-1 adrenergic receptor was determined in rabbit aorta
[27] = organism: Canis familiaris; test: Dose required to reduce blood pressure by 15% (ED15) was calculated; format: functional; conditions: Canis lupus familiaris
[28] = tested on: Canis familiaris; test: Mean arterial blood pressure (MABP) was evaluated in anesthetized dog by intravenous administration of compound at 1 mg/kg; format: functional, Canis lupus familiaris
[29] = tested on: Rattus norvegicus; test: Mean arterial blood pressure (MABP) was evaluated in conscious hypertensive rats by peroral administration of compound at 30 mg/kg; format: functional; conditions: route oral

SMILES	IC50 [1]	ED15 [2]	Max delta MABP [23]	Max delta MABP ([24]; route oral)	IC50 [25]	pA2 [26]	Max delta MABP [24]	other results
Cc1cc2c(s1)CCC(CN[C@@H]1CC[C@@H](Oc3ccccc3)[C@@H]1O)C2=O.Cl (some centres not stated)	800 nM	0.08 mg/kg	-47 mmHg	-70 mmHg	8 nM	8.13		Delta MABP [3]: -3%; Delta MABP [4]: -3%; Delta MABP [5]: -6%; Delta RBF [6]: 9%; Delta RBF [7]: -1%; Delta RBF [8]: 9%; Delta RBF [9]: -6%; Delta RBF [10]: -1%; Delta MABP [11]: -10%; Delta MABP [12]: -10%; Delta MABP [13]: -14%; Delta MABP [14]: -15%; Delta MABP [15]: -21%; Delta MABP [16]: -22%; Delta MABP [17]: -29%; Delta RBF [18]: -2%; Delta RBF [19]: 6%; Delta RBF [20]: -1%; Delta RBF [21]: 10%; Delta RBF [22]: -1%
Cc1cc2c(s1)CCC(CN[C@H]1CC[C@@H](Oc3ccccc3)[C@H]1O)C2=O (some centres not stated)	600 nM	3.3 mg/kg	-16 mmHg		55 nM	7.28	inactive	
Cc1cc2c(s1)CCC(CN[C@H]1CC[C@@H](Oc3ccccc3)[C@@H]1O)C2=O (some centres not stated)	> 1000 nM		-8 mmHg		90 nM	7.04	inactive	ED15 [27]: > 10 mg/kg
Cc1cc2c(s1)CCC(CN[C@@H]1CC[C@@H](Oc3ccccc3)[C@H]1O)C2=O (some centres not stated)	100 nM	0.61 mg/kg	-31 mmHg	-34 mmHg	45 nM	7.4		
COc1cc2nc(N3CCN(C(=O)c4ccco4)CC3)nc(N)c2cc1OC [PRAZOSIN]		0.1 mg/kg						Max delta MABP [28]: -30 mmHg; Max delta MABP [29]: -45 mmHg
